# System: HT-29
# Experiment: Compound was tested in vitro for antiproliferative activity against human HT-29 cell line
# Type: functional, cell-based
row,IC50,SMILES
1,0.4 µM,c1cc(C[n+]2ccc(N3CCCCC3)cc2)ccc1CCc1ccc(C[n+]2ccc(N3CCCCC3)cc2)cc1
2,4 µM,Nc1cc[n+](Cc2ccc(CCc3ccc(C[n+]4ccc(N)cc4)cc3)cc2)cc1
3,2 µM,CN(C)c1cc[n+](Cc2ccc(CCc3ccc(C[n+]4ccc(N(C)C)cc4)cc3)cc2)cc1
4,0.4 µM,c1cc(C[n+]2ccc(N3CCCCCC3)cc2)ccc1CCc1ccc(C[n+]2ccc(N3CCCCCC3)cc2)cc1
5,> 100 µM,OCc1cc[n+](Cc2ccc(CCc3ccc(C[n+]4ccc(CO)cc4)cc3)cc2)cc1
6,> 1000 µM,O=C(O)c1cc[n+](Cc2ccc(CCc3ccc(C[n+]4ccc(C(=O)O)cc4)cc3)cc2)cc1
7,0.55 µM,C=CCN(CC=C)c1cc[n+](Cc2ccc(CCc3ccc(C[n+]4ccc(N(CC=C)CC=C)cc4)cc3)cc2)cc1
8,200 µM,N#Cc1cc[n+](Cc2ccc(CCc3ccc(C[n+]4ccc(C#N)cc4)cc3)cc2)cc1
9,20 µM,Cc1cc[n+](Cc2ccc(CCc3ccc(C[n+]4ccc(C)cc4)cc3)cc2)cc1
10,1 µM,c1cc(C[n+]2ccc(N3CCCC3)cc2)ccc1CCc1ccc(C[n+]2ccc(N3CCCC3)cc2)cc1

row,SMILES,IC50
1,C[N+]1(C)CCOC(O)(c2ccc(-c3ccc(C4(O)C[N+](C)(C)CCO4)cc3)cc2)C1 (stereo unspecified) [HEMICHOLINIUM-3],2500 µM

# Reference: ChEMBL document CHEMBL1133498, “QSAR of 1,1'-(1,2-ethylenebisbenzyl)bis(4-substitutedpyridinium) dibromides as choline kinase inhibitors: a different approach for antiproliferative drug design” (Bioorg Med Chem Lett, 2000)
